PMC7845692 (Frontiers in Pharmacology, 2020)
Where two headings read alike, the source gives them in different places.

What was measured:
Human coronavirus OC43 = experiment: HCoV-OC43 immunofluorescent assay (IFA) against N protein in HCT-8 cells; assay type: cell-based; conditions: for EC50: read-out: Human coronavirus OC43 EC50 (IFA); for Human coronavirus OC43 Selectivity index: CC50/EC50, HCT-8 cells
HCoV-OC43 = HCoV-OC43 viral yield, end point dilution assay / TCID50; assay type: cell-based, Human coronavirus OC43; conditions: for concentration accomplishing complete reduction of HCoV-OC43 viral yield: reduction ∼7–8 log
in vitro [1] = conditions: human
[2] = cell cytotoxicity by visualization (FIPV host cells); conditions: cat
Description: (§2) The serotype II FIPV Taiwan isolate NTU156 strain, a kind gift from National Taiwan University, was propagated and titrated in Fcwf-4 cells ([Lin et al., 2009]). The EC50 for anti-FIPV activity and CC50 for cell cytotoxicity were determined as previously described ([Yang et al., 2020b]).

[3] = test system: Feline infectious peritonitis virus; experiment: anti-FIPV activity, cytopathic effect by visualization in Fcwf-4 cells; conditions: for EC50: Alphacoronavirus 1, read-out: Feline infectious peritonitis virus EC50 CPE/visualization; for Feline infectious peritonitis virus Selectivity index: CC50/EC50, Fcwf-4 cells
Description: as §2

HCoV-229E [4] = experiment: HCoV-229E viral RNA (ORF1, ORF N) by semi-RT-qPCR in MRC-5 cells; assay type: cell-based, Human coronavirus 229E; conditions: MRC-5, MOI 1, 30 h.p.i., 10–300 nM, dose dependent
Description: These experiments were performed as described ([Yang et al., 2007b]). Mock or HCoV-229E infected (MOI of 1) lysates were processed and prepared at 30 h.p.i. without or with compound treatment. The total RNA was extracted with TRIzol reagent (Invitrogen). The relative viral RNA expression levels were determined by semi-RT-qPCR, analyzed with the ImageJ Analyzer program (http://imagej.nih.gov/ij/index.html), and normalized with the housekeeping gene GAPDH. The primers used to amplify the PCR products were 5′-GGCGAGGTGGAATTTGTTTA-3′ and 5′-ACCTTTAAGCCACCATGTGC-3′ for ORF1; 5′-TCTGCCAAGAGTCTTGCTCG-3′ and 5′-AGCATAGCAGCTGTTGACGG-3′ for ORF N. The amplification of target cDNA was conducted under the following conditions: 25 cycles of 95°C for 30 s, 55°C for 20 s, and 72°C for 30 s for ORF N; 29 cycles of 95°C for 30 s, 55°C for 20 s, and 72°C for 30 s for ORF1, and 35 cycles of 95°C for 30 s, 55°C for 20 s, and 72°C for 30 s for GAPDH. The final PCR products were subjected to electrophoresis on 2% agarose gel containing ethidium bromide along with DNA markers.

SARS-CoV-2 [5] = experiment: SARS-CoV-2 cytopathic effect by visualization in Vero E6 cells; assay type: cell-based
Description: (§1) CPE was performed as described ([Wu et al., 2004]). For IFA, Vero E6 cells (BCRC number: 60476; derived from ATCC CRL-1586) were treated with each compound at the indicated concentration for 1 h at 37°C. The cells were adsorbed with SARS-CoV-2 (TCDC#4) (sequence available on the GISAID website) at an MOI = 0.01 for 1 h at 37°C. After virus adsorption, the cells were washed with PBS and fresh medium containing each compound at the indicated concentration was added. After 2 days, cells were fixed with 4% paraformaldehyde and permeabilized with 0.5% Triton X-100. The cells were stained with anti-SARS-CoV-2 N protein antibody, provided by Dr. An-Suei Yang of the Genomics Research Center, Academia Sinica, and goat anti-human IgG-Alexa Fluor 488 (A11013, Invitrogen) (in green). The nuclei were counter stained with DAPI (in blue) (D1306, Invitrogen). The N protein expression was measured using a high-content image analysis system (Molecular Devices). The cell viability was determined by Cell Counting Kit-8 (CCK-8) (Sigma-Aldrich, cat #96992). EC50 and CC50 values were calculated by Prism software.

[6] = Vero E6 cytotoxicity by visualization; assay type: cell-based; conditions: African green monkey, Vero E6 cells; read-out: SARS-CoV-2 CC50 Visualization
Description: as §1

SARS-CoV-2 [7] = experiment: SARS-CoV-2 IFA against N protein in Vero E6 cells; assay type: cell-based; conditions: for SARS-CoV-2 Selectivity index (IFA/CCK-8): CC50/EC50, Vero E6 cells
Description: as §1

[8] = Vero E6 cell viability (CCK-8); assay type: cell-based; conditions: African green monkey, Vero E6 cells; read-out: SARS-CoV-2 CC50 CCK-8
Description: as §1

in vitro [9] = conditions: human, MRC-5 cells
HCoV-229E [10] = experiment: HCoV-229E viral yield, end point dilution assay / TCID50; conditions: MRC-5, MOI 0.05; for complete reduction of HCoV-229E viral yield: at 100, 300 and 600 nM respectively (dbq33b, dbq33b4p7, PI09); for concentration giving complete reduction of HCoV-229E viral yield: reduction 6–7 log
Human coronavirus 229E = experiment: HCoV-229E cytopathic effect, crystal violet absorbance in MRC-5 cells; conditions: CC50/EC50, MRC-5 cells
[11] = HCT-8 cell viability (MTS); conditions: human, HCT-8 cells
SARS-CoV-2 [12] = experiment: microbe, parasite or virus in culture; assay type: cell-based; conditions: Severe acute respiratory syndrome coronavirus 2, Vero C1008; Vero E6 cells, 5–7 days, Figure 5B-b; read-out: SARS-CoV-2 plaque assay EC50
[13] = Betacoronavirus 1, OC43, HCT-8 cells, MOI 0.05, 72 h.p.i., means ± SD
[14] = Severe acute respiratory syndrome coronavirus 2, Vero C1008, 48 h, read-out: SARS-CoV-2 EC50 IFA, Vero E6 cells, MOI 0.01, 2 d.p.i., N protein
[15] = Betacoronavirus 1, OC43, HCT-8, 72 h
[16] = at concentrations of up to 50 μM

Structure (SMILES): C[C@@H]1O[C@@H](O[C@H]2C[C@@H](O)[C@]3(CO)[C@H]4[C@H](O)C[C@]5(C)[C@@H](C6=CC(=O)OC6)CC[C@]5(O)[C@@H]4CC[C@]3(O)C2)[C@H](O)[C@H](O)[C@H]1O [Ouabain, ouabain]
- EC50 (Human coronavirus OC43; [13]): 71 ± 7 nM
- Human coronavirus OC43 Selectivity index (Human coronavirus OC43): 7.1
- maximum reduction of HCoV-OC43 viral yield (HCoV-OC43): 2–3 orders of magnitudes
- concentration of maximum reduction of HCoV-OC43 viral yield (HCoV-OC43; HCT-8, MOI 0.05, reduction ∼2–3 orders of magnitude): 10 nM
- CC50 (in vitro [1]): 504 ± 11 nM
- CC50 [2]: 6250 ± 2160 nM
- EC50 [3]: 1560 nM
- Feline infectious peritonitis virus Selectivity index [3]: 4.0

Structure (SMILES): COc1cc2c3c(c4cc(OC)c(OC)cc4c2cc1OC)CN1CCCC1C3 (centres unmarked) [PI09]
- EC50 (Human coronavirus OC43; [13]): 68 ± 3 nM
- Human coronavirus OC43 Selectivity index (Human coronavirus OC43): >147
- complete reduction of HCoV-OC43 viral yield (HCoV-OC43): 7–8 log of magnitudes
- concentration accomplishing complete reduction of HCoV-OC43 viral yield (HCoV-OC43; HCT-8, MOI 0.05): 300 nM
- effect on HCoV-229E viral genome replication and subgenomic viral RNA syntheses (RT-PCR ORF1, ORF N) (HCoV-229E [4]): inhibited HCoV-229E viral genome replication and subgenomic viral RNA syntheses
- EC50 (SARS-CoV-2 [5]; Severe acute respiratory syndrome coronavirus 2, Vero C1008, read-out: SARS-CoV-2 EC50 CPE/visualization): 78 nM
- CC50 [6]: 5000 nM
- SARS-CoV-2 Selectivity index (IFA/CCK-8) (SARS-CoV-2 [7]): 46
- EC50 (SARS-CoV-2 [7]; [14]): 77 nM
- EC50 (SARS-CoV-2 [7]; read-out: SARS-CoV-2 EC50 IFA, Vero E6 cells, MOI 0.01, 2 d.p.i., N protein): 76.8 nM
- CC50 [8]: 3550 nM
- CC50 (in vitro [1]): > 10000 nM
- CC50 (in vitro [9]): 6640 nM
- CC50 [2]: 6380 ± 2250 nM
- complete reduction of HCoV-229E viral yield (HCoV-229E [10]): 6–7 log of magnitudes
- concentration giving complete reduction of HCoV-229E viral yield (HCoV-229E [10]): 600 nM
- Human coronavirus 229E Selectivity index (Human coronavirus 229E): 93
- EC50 [3]: 62 ± 25 nM
- Feline infectious peritonitis virus Selectivity index [3]: 102.8

Structure (SMILES): COc1cc2c3c(c4cc(OC)c(OC)cc4c2cc1OC)CN1CCCCC1C3 (centres unmarked) [PQ09]
- EC50 (Human coronavirus OC43; [15]): 52 ± 6 nM
- Human coronavirus OC43 Selectivity index (Human coronavirus OC43): >193
- CC50 at 72 h [11]: > 10000 nM
- CC50 [2]: 3090 ± 886 nM
- EC50 [3]: 17 ± 6 nM
- Feline infectious peritonitis virus Selectivity index [3]: 182.0

Structure (SMILES): CCC(CC)COC(=O)[C@H](C)N[P@](=O)(OC[C@H]1O[C@@](C#N)(c2ccc3c(N)ncnn23)[C@H](O)[C@@H]1O)Oc1ccccc1 [Remdesivir]
- EC50 (Human coronavirus OC43; [15]): 947 ± 320 nM
- Human coronavirus OC43 Selectivity index (Human coronavirus OC43): >52.8
- EC50 (SARS-CoV-2 [12]): 647 ± 16.7 nM
- CC50 (in vitro [1]): > 50000 nM

Structure (SMILES): CCN1CCc2c(c3cc(OC)c(OC)cc3c3cc(OC)ccc23)C1 [dbq29a]
- EC50 (Human coronavirus OC43; [15]): 213 ± 62 nM
- Human coronavirus OC43 Selectivity index (Human coronavirus OC43): >46.9
- CC50 at 72 h [11]: > 10000 nM
- CC50 [2]: 4310 ± 1120 nM
- EC50 [3]: 352 ± 77 nM
- Feline infectious peritonitis virus Selectivity index [3]: 12.3

Structure (SMILES): CCN1Cc2c(c3ccc(OC)cc3c3cc(OC)c(OC)cc23)C(O)C1C (centres unmarked) [dbq33b4p7]
- EC50 (Human coronavirus OC43; [15]): 56 ± 6 nM
- Human coronavirus OC43 Selectivity index (Human coronavirus OC43): >179
- complete reduction of HCoV-OC43 viral yield (HCoV-OC43; HCT-8, MOI 0.05, supernatant 72 h.p.i., at 30, 100 and 300 nM respectively (dbq33b, dbq33b4p7, PI09)): 7–8 log of magnitudes
- concentration accomplishing complete reduction of HCoV-OC43 viral yield (HCoV-OC43; HCT-8, MOI 0.05): 100 nM
- effect on HCoV-229E viral genome replication and subgenomic viral RNA syntheses (RT-PCR ORF1, ORF N) (HCoV-229E [4]): inhibited HCoV-229E viral genome replication and subgenomic viral RNA syntheses
- SARS-CoV-2 Selectivity index (CPE/visualization) (SARS-CoV-2 [5]; CC50/EC50, Vero E6 cells): 125
- EC50 (SARS-CoV-2 [5]; Severe acute respiratory syndrome coronavirus 2, Vero C1008, Vero E6 cells, means from duplicate, read-out: SARS-CoV-2 EC50 CPE/visualization): 20 nM
- CC50 [6]: 2500 nM
- SARS-CoV-2 Selectivity index (IFA/CCK-8) (SARS-CoV-2 [7]): 93
- EC50 (SARS-CoV-2 [7]; [14]): 32 nM
- EC50 (SARS-CoV-2 [7]; Vero E6 cells, MOI 0.01, 2 d.p.i., N protein, read-out: SARS-CoV-2 EC50 IFA): 31.9 nM
- CC50 [8]: 2970 nM
- CC50 (in vitro [9]): 7360 nM
- CC50 at 72 h [11]: > 10000 nM
- CC50 [2]: 6250 ± 2160 nM
- complete reduction of HCoV-229E viral yield (HCoV-229E [10]): 6–7 log of magnitudes
- concentration giving complete reduction of HCoV-229E viral yield (HCoV-229E [10]): 300 nM
- Human coronavirus 229E Selectivity index (Human coronavirus 229E): 290
- EC50 [3]: 20 ± 7 nM
- Feline infectious peritonitis virus Selectivity index [3]: 312.5

Structure (SMILES): C[C@]12CC[C@H](O)C[C@H]1CC[C@@H]1[C@@H]2CC[C@]2(C)[C@@](O)(c3ccoc3)CC[C@]12O [rostafuroxin]
- inhibitory activity against HCoV-OC43 (Human coronavirus OC43; [16]): did not exhibit any inhibitory activity
- inhibitory activity against FIPV [3, 16]: did not exhibit any inhibitory activity
